Results: the supplement of paper PMC10307832

Legend:
Experiment in all cases: relative viability (nuclei count vs DMSO), 5 days (fraction); higher = more cells survive
LK-2 = test system: LK-2
Outline: (§1)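 Lung cancer cell lines in 1536-well plates got either a single drug or a fixed anchor-drug dose together with five library-drug doses (not always all listed) in √10 steps, by pin tool, on the day after seeding. Nuclei were counted after 5 days, and relative viability is the treated-to-vehicle ratio of nuclei counts. Values are medians of duplicate plates.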

NCI-H2009 = test system: NCI-H2009
Outline: as §1

LC-2-ad = test system: LC-2-ad
Outline: as §1

EMC-BAC-2 = test system: EMC-BAC-2
Outline: as §1

NCI-H2347 = test system: NCI-H2347
Outline: as §1

SW 1573 = test system: SW 1573
Outline: as §1

NCI-H838 = test system: NCI-H838
Outline: as §1

PC-14 = test system: PC-14
Outline: as §1

NCI-H2085 = test system: NCI-H2085
Outline: as §1

NCI-H596 = test system: NCI-H596
Outline: as §1

NCI-H1734 = test system: NCI-H1734
Outline: as §1

HOP-62 = test system: HOP-62
Outline: as §1

NCI-H1993 = test system: NCI-H1993
Outline: as §1

NCI-H2405 = test system: NCI-H2405
Outline: as §1

RERF-LC-KJ = test system: RERF-LC-KJ
Outline: as §1

CAL-12T = test system: CAL-12T
Outline: as §1

NCI-H2228 = test system: NCI-H2228
Outline: as §1

ChaGo-K-1 = test system: ChaGo-K-1
Outline: as §1

NCI-H3122 = test system: NCI-H3122
Outline: as §1

SK-MES-1 = test system: SK-MES-1
Outline: as §1

NCI-H1355 = test system: NCI-H1355
Outline: as §1

## O=c1[nH]c2ccccc2n1C1CCN(CCCC(c2ccc(F)cc2)c2ccc(F)cc2)CC1 [Pimozide] + CCNC(=O)c1noc(-c2cc(C(C)C)c(O)cc2O)c1-c1ccc(CN2CCOCC2)cc1 [Luminespib] (partner 0.01 µM)
LK-2; first compound 0.08 µM
  relative viability: 0.18
LK-2; first compound 0.253 µM
  relative viability: 0.165
LK-2; first compound 2.53 µM
  relative viability: 0.18
LK-2; first compound 8 µM
  relative viability: 0.188
NCI-H2009; first compound 0.08 µM
  relative viability: 0.984
NCI-H2009; first compound 0.253 µM
  relative viability: 1.01
NCI-H2009; first compound 0.8 µM
  relative viability: 0.981
NCI-H2009; first compound 2.53 µM
  relative viability: 1.05
NCI-H2009; first compound 8 µM
  relative viability: 0.842
LC-2-ad; first compound 0.08 µM
  relative viability: 1.1
LC-2-ad; first compound 0.253 µM
  relative viability: 0.969
LC-2-ad; first compound 0.8 µM
  relative viability: 0.935
LC-2-ad; first compound 2.53 µM
  relative viability: 0.985
LC-2-ad; first compound 8 µM
  relative viability: 0.993
EMC-BAC-2; first compound 0.08 µM
  relative viability: 1.13
EMC-BAC-2; first compound 0.253 µM
  relative viability: 1.1
EMC-BAC-2; first compound 0.8 µM
  relative viability: 1.18
EMC-BAC-2; first compound 2.53 µM
  relative viability: 1.18
EMC-BAC-2; first compound 8 µM
  relative viability: 1.16
NCI-H2347; first compound 0.253 µM
  relative viability: 0.3
NCI-H2347; first compound 0.8 µM
  relative viability: 0.374
NCI-H2347; first compound 2.53 µM
  relative viability: 0.582
NCI-H2347; first compound 8 µM
  relative viability: 0.266
SW 1573; first compound 0.08 µM
  relative viability: 0.214
SW 1573; first compound 0.253 µM
  relative viability: 0.301
SW 1573; first compound 0.8 µM
  relative viability: 0.188
SW 1573; first compound 2.53 µM
  relative viability: 0.223
SW 1573; first compound 8 µM
  relative viability: 0.198
NCI-H838; first compound 0.08 µM
  relative viability: 0.263
NCI-H838; first compound 0.253 µM
  relative viability: 0.379
NCI-H838; first compound 0.8 µM
  relative viability: 0.309
NCI-H838; first compound 2.53 µM
  relative viability: 0.296
NCI-H838; first compound 8 µM
  relative viability: 0.244
PC-14; first compound 0.253 µM
  relative viability: 0.181
PC-14; first compound 2.53 µM
  relative viability: 0.15
PC-14; first compound 8 µM
  relative viability: 0.111
NCI-H2085; first compound 0.08 µM
  relative viability: 0.515
NCI-H2085; first compound 0.253 µM
  relative viability: 0.485
NCI-H2085; first compound 0.8 µM
  relative viability: 0.4
NCI-H2085; first compound 2.53 µM
  relative viability: 0.496
NCI-H2085; first compound 8 µM
  relative viability: 0.322
NCI-H596; first compound 0.08 µM
  relative viability: 0.97
NCI-H596; first compound 0.253 µM
  relative viability: 1.11
NCI-H596; first compound 0.8 µM
  relative viability: 1.11
NCI-H596; first compound 2.53 µM
  relative viability: 0.776
NCI-H596; first compound 8 µM
  relative viability: 0.847
NCI-H1734; first compound 0.08 µM
  relative viability: 0.168
NCI-H1734; first compound 0.253 µM
  relative viability: 0.17
NCI-H1734; first compound 2.53 µM
  relative viability: 0.154
NCI-H1734; first compound 8 µM
  relative viability: 0.374
HOP-62; first compound 0.08 µM
  relative viability: 0.995
HOP-62; first compound 0.253 µM
  relative viability: 0.875
HOP-62; first compound 0.8 µM
  relative viability: 0.709
HOP-62; first compound 2.53 µM
  relative viability: 0.904
HOP-62; first compound 8 µM
  relative viability: 0.873
NCI-H1993; first compound 0.08 µM
  relative viability: 0.729
NCI-H1993; first compound 0.253 µM
  relative viability: 0.809
NCI-H1993; first compound 0.8 µM
  relative viability: 0.77
NCI-H1993; first compound 2.53 µM
  relative viability: 0.79
NCI-H1993; first compound 8 µM
  relative viability: 0.425
NCI-H2405; first compound 0.08 µM
  relative viability: 0.654
NCI-H2405; first compound 0.253 µM
  relative viability: 0.717
NCI-H2405; first compound 0.8 µM
  relative viability: 0.618
NCI-H2405; first compound 2.53 µM
  relative viability: 0.559
NCI-H2405; first compound 8 µM
  relative viability: 0.315
RERF-LC-KJ; first compound 0.08 µM
  relative viability: 1.09
RERF-LC-KJ; first compound 0.253 µM
  relative viability: 1.14
RERF-LC-KJ; first compound 0.8 µM
  relative viability: 1.08
RERF-LC-KJ; first compound 2.53 µM
  relative viability: 1.12
RERF-LC-KJ; first compound 8 µM
  relative viability: 0.964
CAL-12T; first compound 0.08 µM
  relative viability: 0.305
CAL-12T; first compound 0.253 µM
  relative viability: 0.408
CAL-12T; first compound 0.8 µM
  relative viability: 0.186
CAL-12T; first compound 2.53 µM
  relative viability: 0.514
CAL-12T; first compound 8 µM
  relative viability: 0.168
NCI-H2228; first compound 0.08 µM
  relative viability: 0.116
NCI-H2228; first compound 0.253 µM
  relative viability: 0.149
NCI-H2228; first compound 0.8 µM
  relative viability: 0.152
NCI-H2228; first compound 2.53 µM
  relative viability: 0.18
NCI-H2228; first compound 8 µM
  relative viability: 0.122
ChaGo-K-1; first compound 0.08 µM
  relative viability: 0.48
ChaGo-K-1; first compound 0.253 µM
  relative viability: 0.472
ChaGo-K-1; first compound 0.8 µM
  relative viability: 0.375
ChaGo-K-1; first compound 2.53 µM
  relative viability: 0.496
ChaGo-K-1; first compound 8 µM
  relative viability: 0.484
NCI-H3122; first compound 0.08 µM
  relative viability: 0.109
NCI-H3122; first compound 0.253 µM
  relative viability: 0.0961
NCI-H3122; first compound 0.8 µM
  relative viability: 0.105
NCI-H3122; first compound 2.53 µM
  relative viability: 0.0832
NCI-H3122; first compound 8 µM
  relative viability: 0.0656
SK-MES-1; first compound 0.08 µM
  relative viability: 0.859
SK-MES-1; first compound 0.253 µM
  relative viability: 0.766
SK-MES-1; first compound 0.8 µM
  relative viability: 0.702
SK-MES-1; first compound 2.53 µM
  relative viability: 0.815
SK-MES-1; first compound 8 µM
  relative viability: 0.596
NCI-H1355; first compound 0.08 µM
  relative viability: 0.728
NCI-H1355; first compound 0.253 µM
  relative viability: 0.63
NCI-H1355; first compound 0.8 µM
  relative viability: 0.633
NCI-H1355; first compound 2.53 µM
  relative viability: 0.557
NCI-H1355; first compound 8 µM
  relative viability: 0.642
